According to ChEMBL document CHEMBL4819087, “Identification and optimization of 3-bromo-N'-(4-hydroxybenzylidene)-4-methylbenzohydrazide derivatives as mTOR inhibitors that induce autophagic cell death and apoptosis in triple-negative breast cancer” (Eur J Med Chem, 2021):
Active and inactive are the calls of the source. The rule behind the calls is not given here.

What was measured:
MDA-MB-231 [1] = experiment: Induction of autophagy in human MDA-MB-231 cells assessed as MDC positive ratio at 1 uM incubated for 6 hrs by MDC staining based flow cytometry analysis; assay type: functional
[2] = target: T1, Serine/threonine-protein kinase mTOR (Homo sapiens, UniProt P42345); experiment: Inhibition of mTOR in human MDA-MB-468 cells assessed as reduction in phosphorylation of mTOR at Ser2448 residue at 0.5 to 2 uM after 24 hrs by Western blot analysis; assay type: cell-based; details: dose 0.5-2 µM
[3] = target: T1, Serine/threonine-protein kinase mTOR; experiment: Inhibition of mTOR in human MDA-MB-468 cells assessed as reduction in AKT protein level at 0.5 to 2 uM after 24 hrs by Western blot analysis; assay type: cell-based; details: dose 0.5-2 µM
[4] = target: T1, Serine/threonine-protein kinase mTOR; experiment: Inhibition of mTOR in human MDA-MB-231 cells assessed as reduction in p-AKT(Ser473) protein level at 0.5 to 2 uM after 24 hrs by Western blot analysis; assay type: cell-based; details: dose 0.5-2 µM
[5] = target: T1, Serine/threonine-protein kinase mTOR; experiment: Inhibition of mTOR in human MDA-MB-231 cells assessed as reduction in p70S6K(Thr389) protein level at 0.5 to 2 uM after 24 hrs by Western blot analysis; assay type: cell-based; details: dose 0.5-2 µM
[6] = target: T1, Serine/threonine-protein kinase mTOR; experiment: Inhibition of mTOR in human MDA-MB-468 cells assessed as reduction in p-AKT(Ser473) protein level at 0.5 to 2 uM after 24 hrs by Western blot analysis; assay type: cell-based; details: dose 0.5-2 µM
[7] = target: T1, Serine/threonine-protein kinase mTOR; experiment: Inhibition of mTOR in human MDA-MB-468 cells assessed as reduction in p70S6K(Thr389) protein level at 0.5 to 2 uM after 24 hrs by Western blot analysis; assay type: cell-based; details: dose 0.5-2 µM
MDA-MB-231 [8] = experiment: Antiproliferative activity against human MDA-MB-231 cells measured after 24 hrs by Hoechst 33258 dye based fluorescence microscopic analysis; assay type: functional, cell-based; details: dose 2.5-10 µM
MDA-MB-468 [9] = experiment: Inhibition of colony formation in human MDA-MB-468 cells measured after 14 days by crystal violet staining based assay; assay type: functional, cell-based; details: dose 5-10 µM, time 14.0 day
MDA-MB-231 [10] = experiment: Induction of apoptosis in human MDA-MB-231 cells assessed as necrotic cells at 2.5 uM after 24 hrs by AnnexinV-FITC/PI staining based flow cytometry analysis (reference value: 0.083%); assay type: functional
MDA-MB-231 [11] = experiment: Induction of apoptosis in human MDA-MB-231 cells assessed as viable cells at 5 uM after 24 hrs by AnnexinV-FITC/PI staining based flow cytometry analysis (reference value: 96.45%); assay type: functional; details: read-out: Activity
MDA-MB-231 [12] = experiment: Induction of apoptosis in human MDA-MB-231 cells assessed as late apoptotic cells at 5 uM after 24 hrs by AnnexinV-FITC/PI staining based flow cytometry analysis (reference value: 0.84%); assay type: functional
MDA-MB-231 [13] = experiment: Induction of apoptosis in human MDA-MB-231 cells assessed as viable cells at 10 uM after 24 hrs by AnnexinV-FITC/PI staining based flow cytometry analysis (reference value: 95.6 to 96.45%); assay type: functional; details: read-out: Activity
MDA-MB-231 [14] = experiment: Induction of apoptosis in human MDA-MB-231 cells assessed as late apoptotic cells at 10 uM after 24 hrs by AnnexinV-FITC/PI staining based flow cytometry analysis (reference value: 0.84 to 1.59%); assay type: functional
MDA-MB-231 [15] = experiment: Induction of apoptosis in human MDA-MB-231 cells assessed as necrotic cells at 10 uM after 24 hrs by AnnexinV-FITC/PI staining based flow cytometry analysis (reference value: 0.083%); assay type: functional
MDA-MB-468 [16] = experiment: Induction of apoptosis in human MDA-MB-468 cells assessed as viable cells at 2.5 uM after 24 hrs by AnnexinV-FITC/PI staining based flow cytometry analysis (reference value: 95.1%); assay type: functional; details: read-out: Activity
MDA-MB-468 [17] = experiment: Induction of apoptosis in human MDA-MB-468 cells assessed as late apoptic cells at 2.5 uM after 24 hrs by AnnexinV-FITC/PI staining based flow cytometry analysis (reference value: 2.84%); assay type: functional
MDA-MB-468 [18] = experiment: Induction of apoptosis in human MDA-MB-468 cells assessed as necrotic cells at 5 uM after 24 hrs by AnnexinV-FITC/PI staining based flow cytometry analysis (reference value: 1.56%); assay type: functional
MDA-MB-468 [19] = experiment: Induction of apoptosis in human MDA-MB-468 cells assessed as early apoptic cells at 10 uM after 24 hrs by AnnexinV-FITC/PI staining based flow cytometry analysis (reference value: 0.51 to 2.55%); assay type: functional
MDA-MB-468 [20] = experiment: Induction of apoptosis in human MDA-MB-468 cells assessed as late apoptic cells at 10 uM after 24 hrs by AnnexinV-FITC/PI staining based flow cytometry analysis (reference value: 0.87 to 2.84%); assay type: functional
MDA-MB-468 [21] = experiment: Induction of apoptosis in human MDA-MB-468 cells assessed as increase in cleaved caspase 3 level at 2.5 to 10 uM incubated for 24 hrs by western blot analysis; assay type: functional, cell-based; details: dose 2.5-10 µM
MDA-MB-231 [22] = experiment: Induction of apoptosis in human MDA-MB-231 cells assessed as increase in Bax level at 2.5 to 10 uM incubated for 24 hrs by western blot analysis; assay type: functional, cell-based; details: dose 2.5-10 µM
MDA-MB-468 [23] = experiment: Induction of apoptosis in human MDA-MB-468 cells assessed as increase in Bax level at 2.5 to 10 uM incubated for 24 hrs by western blot analysis; assay type: functional, cell-based; details: dose 2.5-10 µM
MDA-MB-231 [24] = experiment: Induction of apoptosis in human MDA-MB-231 cells assessed as decrease in Bcl2 level at 2.5 to 10 uM incubated for 24 hrs by western blot analysis; assay type: functional, cell-based; details: dose 2.5-10 µM
MDA-MB-231 [25] = experiment: Induction of autophagy in human MDA-MB-231 cells expressing mRFP-EGFP-LC3B at 5 uM measured after 24 hrs by fluorescence microscopic analysis; assay type: functional, cell-based
MDA-MB-468 [26] = experiment: Induction of autophagy in human MDA-MB-468 cells expressing mRFP-EGFP-LC3B at 5 uM measured after 24 hrs by fluorescence microscopic analysis; assay type: functional, cell-based
MDA-MB-231 [27] = experiment: Induction of autophagy in human MDA-MB-231 cells assessed as reduction in p62 protein level at 2.5 to 10 uM incubated for 24 hrs by Western blot analysis; assay type: functional, cell-based; details: dose 2.5-10 µM
MDA-MB-231 [28] = experiment: Induction of autophagy in human MDA-MB-231 cells assessed as increase in Beclin-1 protein level at 2.5 to 10 uM incubated for 24 hrs by Western blot analysis; assay type: functional, cell-based; details: dose 2.5-10 µM
MDA-MB-468 [29] = experiment: Induction of autophagy in human MDA-MB-468 cells assessed as reduction in p62 protein level at 2.5 to 10 uM incubated for 24 hrs by Western blot analysis; assay type: functional, cell-based; details: dose 2.5-10 µM
MDA-MB-468 [30] = experiment: Induction of autophagy in human MDA-MB-468 cells assessed as increase in Beclin-1 protein level at 2.5 to 10 uM incubated for 24 hrs by Western blot analysis; assay type: functional, cell-based; details: dose 2.5-10 µM
MDA-MB-231 [31] = experiment: Induction of apoptosis in human MDA-MB-231 cells assessed as late apoptotic cells at 10 uM pretreated with autophagy inhibitor, 3-methyladenine for 1 hr followed by incubation with compound and measured after 24 hrs by Annexin V-FITC/propidium iodide staining based flow cytometry (reference value: 3.11%); assay type: functional; parameters: scale not given: the % may be the effect or the level left
MDA-MB-468 [32] = experiment: Induction of apoptosis in human MDA-MB-468 cells assessed as viable cells at 10 uM pretreated with autophagy inhibitor, 3-methyladenine for 1 hr followed by incubation with compound and measured after 24 hrs by Annexin V-FITC/propidium iodide staining based flow cytometry (reference value: 93.6%); assay type: functional; details: read-out: Activity
MDA-MB-231 [33] = experiment: cells; details: Homo sapiens, MDA-MB-231, 24 h
Description: Antiproliferative activity against human MDA-MB-231 cells assessed as reduction in cell viability incubated for 24 hrs by MTT assay

- inhibition [2]: Active
- inhibition [3]: Active
- inhibition [4]: Active
- inhibition [5]: Active
- inhibition [6]: Active
- inhibition [7]: Active
- IC50 (MDA-MB-231 [33]): 3.38 µM
SMILES: C/C(=N\NC(=O)c1cccc(Br)c1)c1ccc(C(=O)Nc2nc3ccccc3[nH]2)cc1
- Activity (MDA-MB-231 [1]): 25.67%
- Activity (MDA-MB-231 [8]): Dose-Dependent Effect
- inhibition (MDA-MB-468 [9]): Dose-Dependent Effect
- Activity (MDA-MB-231 [10]): 0.076%
- viability at 5 µM (MDA-MB-231 [11]): 87.1%
- Activity (MDA-MB-231 [12]): 2.3%
- viability at 10 µM (MDA-MB-231 [13]): 70.2%
- Activity (MDA-MB-231 [14]): 5.71%
- Activity (MDA-MB-231 [15]): 0.15%
- viability at 2.5 µM (MDA-MB-468 [16]): 89.8%
- Activity (MDA-MB-468 [17]): 4.96%
- Activity (MDA-MB-468 [18]): 0.87%
- Activity (MDA-MB-468 [19]): 12%
- Activity (MDA-MB-468 [20]): 12.3%
- Activity (MDA-MB-468 [21]): Active
- Activity (MDA-MB-231 [22]): Active
- Activity (MDA-MB-468 [23]): Active
- Activity (MDA-MB-231 [24]): Active
- Activity (MDA-MB-231 [25]): Active
- Activity (MDA-MB-468 [26]): Active
- Activity (MDA-MB-231 [27]): Active
- Activity (MDA-MB-231 [28]): Active
- Activity (MDA-MB-468 [29]): Active
- Activity (MDA-MB-468 [30]): Active
- Activity (MDA-MB-231 [31]): 6.8%
- viability at 10 µM (MDA-MB-468 [32]): 81%
